# Test results as given in patent USRE48023E1, “Method for treating vascular-related disease” (EYEGENE INC., priority 2006, dated 2020).
# Tested on: mouse retinal angiogenesis
# Test: Mouse model for inducing retinal angiogenesis using oxygen partial pressure, FITC-dextran observation
# Type: in vivo
# Details: for blood leakage (FITC-dextran) / normal angiogenesis (FITC-dextran): administered intraperitoneally after 75% oxygen treatment; for abnormal angiogenesis: treated daily with 1 μg/kg
Substance,blood leakage (FITC-dextran),normal angiogenesis (FITC-dextran),abnormal angiogenesis,normal angiogenesis (FITC-dextran) (listed as polypeptide comprising a RAD sequence)
SEQ ID NO: 1: peptide comprising a RGD sequence; sequence not printed in text (RGDFV; Peptide Containing RGD Sequence),blood leakage is reduced,normal angiogenesis is induced,abnormal angiogenesis was not observed,–
SEQ ID NO: 2: peptide comprising a RGD sequence; sequence not printed in text (GFGRGDSPCA; Peptide Containing RGD Sequence),blood leakage is reduced,normal angiogenesis is induced,abnormal angiogenesis was not observed,–
"SEQ ID NO: 3: polypeptide comprising a sequence RAD, used as the control (RADFV; Peptide Containing RAD Sequence) [reference compound]",–,normal angiogenesis is not induced,–,not also normally formed
echistatin (ECESGPCCRNCKFLKEGTICKRARGDDMDDYCNGLTCDCPRNPHKGPAT; Peptide containing RGD sequence),blood leakage is reduced,normal angiogenesis is induced,abnormal angiogenesis was not observed,–
kistrin,blood leakage is reduced,normal angiogenesis is induced,abnormal angiogenesis was not observed,–
